For series [1] the following is noted: cited from earlier work.
Series [2] in a line: Stability of reboxetine methanesulfonate in the presence of traditional poly(alkylene oxide) polymers. Format: physicochemical. The source says:
Substantial levels of various impurities are formed, which increase in concentration over time. The predominant impurity that is formed is the n-formyl species of reboxetine methanesulfonate, known as n-formyl reboxetine.
Poly(alkylene oxide) polymer consists of long chains of the polymer. Irradiation and oxidation cause these chains to be cleaved, leaving inorganic and organic formates at the ends of the chains. As more cleaving occurs, there are higher levels of formates present.

As to `C/C(=C/C(=O)O)C(=O)O` [citraconic acid], the Pka in series [1] is 2.48. With `F` [hydrofluoric acid], the Pka in series [1] is reported as 3.14. `CCOc1ccccc1OC(c1ccccc1)C1CNCCO1.CS(=O)(=O)O` (centres unmarked) [reboxetine methanesulfonate]: in series [2], the “stability in the presence of traditional poly(alkylene oxide) polymer subjected to irradiation processes or oxidation” value was “substantially less stable” and the “stability in the presence of traditional polyethylene oxides” value is reported as “unstable”. As to `O=S(O)(O)=S` [thiosurfuric acid], the Pka in series [1] is listed as 2.00.

These data come from patent US20040033263A1, “Reduced formate poly(alkylene oxides) with secondary amines for reducing impurity formation” (priority 2002, published 2004).
